pIC50: −log10 of the molar value.
Assays:
[1] = tested on: HCV replicon I389luc-ubi-neo/NS3-3′/ET in ET (Huh-lucubineo-ET) cells; assay: Replicon assay (Biological Example 2), luciferase readout; type: cell-based; conditions: Hepatitis C virus
How it was run: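 EC50 values come from Hill fits of % inhibition of replicon-driven firefly luciferase, relative to no-compound wells. Compounds were serially diluted (10 points, 3-fold, 0.1 nM–50 μM final, 0.5% DMSO) onto ET replicon cells and read after 48 h.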

HCV polymerase = target: T1, HCV polymerase (Hepatitis C virus genotype 1b, UniProt Q9WMX2); assay: Polymerase assay of Biological Example 1 (IC50 values of Table 3); type: biochemical; conditions: IC50 values of Table 3, polymerase assay of Biological Example 1; read-out: NS5B-enzyme3
T1 construct: (His)6 (C); made in house; host or cells: XL-1 cells (E. coli, by own knowledge)

[2] = ET cells, luciferase activity 48 hours after compound

Row | SMILES | pIC50 [1, 2] | pIC50 (HCV polymerase) | pIC50 ([1]; between 100 nM and 5.0 uM)
1 | CNC(=O)c1ccc(S(=O)(=O)N2CC(=O)N(c3cc(C#CC(C)(C)C)sc3C(=O)O)[C@H](C3CCCCC3)C2)cc1 [Compound 253, 3-[(R)-2-Cyclohexyl-4-(4-methylcarbamoyl-benzenesulfonyl)-6-oxo-piperazin-1-yl]-5-(3,3-dimethyl-but-1-ynyl)-thiophene-2-carboxylic acid] | ≥ 7.00 | 8.70 | 
2 | O=C(O)c1sc(-c2ccc(F)cc2)cc1N1C(=O)CN(S(=O)(=O)c2ccc(N3CCCOCC3)nc2)C[C@H]1C1CCCCC1 [Compound 186, 3-[(R)-2-Cyclohexyl-4-(6-[1,4]oxazepan-4-yl-pyridine-3-sulfonyl)-6-oxo-piperazin-1-yl]-5-(4-fluoro-phenyl)-thiophene-2-carboxylic acid] | ≥ 7.00 | 9.00 | 
3 | C[C@@H]1CCCN1c1ccc(S(=O)(=O)N2CC(=O)N(c3cc(-c4ccccc4)sc3C(=O)O)C(C3CCCCC3)C2)cn1 (stereo partly drawn) [Compound 118, 3-{2-Cyclohexyl-4-[6-((R)-2-methyl-pyrrolidin-1-yl)-pyridine-3-sulfonyl]-6-oxo-piperazin-1-yl}-5-phenyl-thiophene-2-carboxylic acid] | ≥ 7.00 | 8.70 | 
4 | CC(C)(C)N1CCN(c2ccc(S(=O)(=O)N3CC(=O)N(c4cc(-c5ccccc5)sc4C(=O)O)[C@H](C4CCCCC4)C3)cn2)CC1 [Compound 152, 3-{(R)-4-[6-(4-tert-Butyl-piperazin-1-yl)-pyridine-3-sulfonyl]-2-cyclohexyl-6-oxo-piperazin-1-yl}-5-phenyl-thiophene-2-carboxylic acid] | ≥ 7.00 | 8.52 | 
5 | CC(C)(C)C#Cc1cc(N2C(=O)[C@@H](O)CC[C@H]2C2CCCCC2)c(C(=O)O)s1 [Compound 322] | ≥ 7.00 | 8.22 | 
6 | C[C@@H]1CCCN1c1ccc(S(=O)(=O)N2CC(=O)N(c3cc(-c4ccccc4)sc3C(=O)O)C(C3CCCCC3)C2)cc1 (stereo partly drawn) [Compound 127, 3-{2-Cyclohexyl-4-[4-((R)-2-methyl-pyrrolidin-1-yl)-benzenesulfonyl]-6-oxo-piperazin-1-yl}-5-phenyl-thiophene-2-carboxylic acid] | ≥ 7.00 | 8.52 | 
7 | CC(C)(C)C#Cc1cc(N2C(=O)C(CO)OC[C@H]2C2CCCCC2)c(C(=O)O)s1 (stereo partly drawn) [Compound 329, 3-((R)-5-Cyclohexyl-2-hydroxymethyl-3-oxo-morpholin-4-yl)-5-(3,3-dimethyl-but-1-ynyl)-thiophene-2-carboxylic acid] | ≥ 7.00 | 8.30 | 
8 | Cn1ccc(S(=O)(=O)N2CC(=O)N(c3cc(-c4ccc(Cl)cc4)sc3C(=O)O)[C@H](C3CCCCC3)C2)n1 [Compound 284, 5-(4-Chloro-phenyl)-3-[(R)-2-cyclohexyl-4-(1-methyl-1H-pyrazole-3-sulfonyl)-6-oxo-piperazin-1-yl]-thiophene-2-carboxylic acid] | ≥ 7.00 | 8.52 | 
9 | CC1C(=O)N(c2cc(-c3ccccc3)sc2C(=O)O)C(C2CCCCC2)CN1S(=O)(=O)c1ccc(N2CCOCC2)nc1 (stereo not shown) [Compound 128, 3-[6-Cyclohexyl-3-methyl-4-(6-morpholin-4-yl-pyridine-3-sulfonyl)-2-oxo-piperazin-1-yl]-5-phenyl-thiophene-2-carboxylic acid] |  | 8.05 | 5.30 to 7.00
10 | O=C(O)c1sc(-c2ccccc2)cc1N1C(=O)CN(S(=O)(=O)c2ccc(C3=CCCC3)nc2)C[C@H]1C1CCCCC1 [Compound 215, 3-[(R)-2-Cyclohexyl-4-(6-cyclopent-1-enyl-pyridine-3-sulfonyl)-6-oxo-piperazin-1-yl]-5-phenyl-thiophene-2-carboxylic acid] |  | 8.70 | 5.30 to 7.00
11 | CC(C)(C)OC(=O)NCC1CCN(c2ccc(S(=O)(=O)N3CC(=O)N(c4cc(-c5ccccc5)sc4C(=O)O)[C@H](C4CCCCC4)C3)cn2)CC1 [Compound 149, 3-{(R)-4-[4-(tert-Butoxycarbonyl-amino-methyl)-3,4,5,6-tetrahydro-2H-[1,2′]bipyridinyl-5′-sulfonyl]-2-cyclohexyl-6-oxo-piperazin-1-yl}-5-phenyl-thiophene-2-carboxylic acid] | ≥ 7.00 | 8.52 | 
12 | O=C(O)c1sc(-c2ccccc2)cc1N1C(=O)CN(S(=O)(=O)c2ccc(F)c(C(F)(F)F)c2)CC1C1CCCCC1 (stereo not shown) [Compound 66, 3-[2-Cyclohexyl-4-(4-fluoro-3-trifluoromethyl-benzenesulfonyl)-6-oxo-piperazin-1-yl]-5-phenyl-thiophene-2-carboxylic acid] |  | 7.31 | 5.30 to 7.00
13 | O=C(O)c1sc(-c2ccccc2)cc1N1C(=O)CN(S(=O)(=O)c2ccccc2)CC1C1CCCCC1 (stereo not shown) [Compound 52, 3-(4-Benzenesulfonyl-2-cyclohexyl-6-oxo-piperazin-1-yl)-5-phenyl-thiophene-2-carboxylic acid] |  | 7.82 | 5.30 to 7.00
14 | N[C@@H]1CCN(c2ccc(S(=O)(=O)N3CC(=O)N(c4cc(-c5ccccc5)sc4C(=O)O)[C@H](C4CCCCC4)C3)cn2)C1 [Compound 141, 3-{(R)-4-[6-((R)-3-Amino-pyrrolidin-1-yl)-pyridine-3-sulfonyl]-2-cyclohexyl-6-oxo-piperazin-1-yl}-5-phenyl-thiophene-2-carboxylic acid] | ≥ 7.00 | 8.70 | 
15 | Cc1ccc(-c2cc(N3C(=O)CN(S(=O)(=O)c4ccc(N5CCCC5)nc4)C[C@H]3C3CCCCC3)c(C(=O)O)s2)cc1 [Compound 272, 3-[(R)-2-Cyclohexyl-6-oxo-4-(6-pyrrolidin-1-yl-pyridine-3-sulfonyl)-piperazin-1-yl]-5-p-tolyl-thiophene-2-carboxylic acid] | ≥ 7.00 | 9.00 | 
16 | O=C(O)c1sc(-c2ccccc2)cc1N1C(=O)CN(S(=O)(=O)c2ccc(N3CCC(O)CC3)nc2)CC1C1CCCCC1 (stereo not shown) [Compound 93, 3-[2-Cyclohexyl-4-(4-hydroxy-3,4,5,6-tetrahydro-2H-[1,2′]bipyridinyl-5′-sulfonyl)-6-oxo-piperazin-1-yl]-5-phenyl-thiophene-2-carboxylic acid] | ≥ 7.00 | 8.40 | 
17 | C[C@@H]1CCCN1c1ccc(S(=O)(=O)N2CC(=O)N(c3cc(-c4ccc(Cl)cc4)sc3C(=O)O)[C@H](C3CCCCC3)C2)cc1 [Compound 234, 5-(4-Chloro-phenyl)-3-{(R)-2-cyclohexyl-4-[4-((R)-2-methyl-pyrrolidin-1-yl)-benzenesulfonyl]-6-oxo-piperazin-1-yl}-thiophene-2-carboxylic acid] | ≥ 7.00 | 9.00 | 
18 | CC(C)(C)C#Cc1cc(N2C(=O)CN(S(=O)(=O)c3ccc(F)cc3)C[C@H]2C2CCCCC2)c(C(=O)O)s1 [Compound 243, 3-[(R)-2-Cyclohexyl-4-(4-fluoro-benzenesulfonyl)-6-oxo-piperazin-1-yl]-5-(3,3-dimethyl-but-1-ynyl)-thiophene-2-carboxylic acid] | ≥ 7.00 | 8.70 | 
19 | Cc1ncc(S(=O)(=O)N2CC(=O)N(c3cc(C#CC(C)(C)C)sc3C(=O)O)[C@H](C3CCCCC3)C2)n1C [Compound 255, 3-[(R)-2-Cyclohexyl-4-(2,3-dimethyl-3H-imidazole-4-sulfonyl)-6-oxo-piperazin-1-yl]-5-(3,3-dimethyl-but-1-ynyl)-thiophene-2-carboxylic acid] |  | 8.30 | 5.30 to 7.00
20 | O=C(O)c1sc(-c2ccccc2)cc1N1C(=O)CNC[C@H]1C1CCCCC1 [Compound 15, 3-((R)-2-Cyclohexyl-6-oxo-piperazin-1-yl)-5-phenyl-thiophene-2-carboxylic acid] | ≤ 5.30 | 7.13 | 
21 | O=C(O)CCS(=O)(=O)N1CC(=O)N(c2cc(-c3ccccc3)sc2C(=O)O)C(C2CCCCC2)C1 (stereo not shown) [Compound 41, 3-[4-(2-Carboxy-ethanesulfonyl)-2-cyclohexyl-6-oxo-piperazin-1-yl]-5-phenyl-thiophene-2-carboxylic acid] | ≤ 5.30 | 6.66 | 
22 | CCn1cc(S(=O)(=O)N2CC(=O)N(c3cc(-c4ccc(C)cc4)sc3C(=O)O)[C@H](C3CCCCC3)C2)cn1 [Compound 296, 3-[(R)-2-Cyclohexyl-4-(1-ethyl-1H-pyrazole-4-sulfonyl)-6-oxo-piperazin-1-yl]-5-p-tolyl-thiophene-2-carboxylic acid] | ≥ 7.00 | 8.30 | 
23 | C[C@@H]1COCCN1c1ccc(S(=O)(=O)N2CC(=O)N(c3cc(-c4ccc(F)cc4)sc3C(=O)O)[C@H](C3CCCCC3)C2)cn1 [Compound 195, 3-{(R)-2-Cyclohexyl-4-[6-((R)-3-methyl-morpholin-4-yl)-pyridine-3-sulfonyl]-6-oxo-piperazin-1-yl}-5-(4-fluoro-phenyl)-thiophene-2-carboxylic acid] | ≥ 7.00 | 8.52 | 
24 | CC(C)(C)C#Cc1cc(N2C(=O)OC[C@H]2C2CCCCC2)c(C(=O)O)s1 [Compound 181, 3-((R)-4-Cyclohexyl-2-oxo-oxazolidin-3-yl)-5-(3,3-dimethyl-but-1-ynyl)-thiophene-2-carboxylic acid] |  | 8.52 | 5.30 to 7.00
25 | O=C(O)c1sc(-c2ccccc2F)cc1N1C(=O)CCCC1C1CCCCC1 (stereo not shown) [Compound 67, 3-(2-Cyclohexyl-6-oxo-piperidin-1-yl)-5-(2-fluoro-phenyl)-thiophene-2-carboxylic acid] |  | 6.74 | 5.30 to 7.00
26 | O=C(O)c1sc(-c2ccc(Cl)cc2)cc1N1C(=O)CN(S(=O)(=O)c2ccc(N3CCCCC3)cc2)C[C@H]1C1CCCCC1 [Compound 233, 5-(4-Chloro-phenyl)-3-[(R)-2-cyclohexyl-6-oxo-4-(4-piperidin-1-yl-benzenesulfonyl)-piperazin-1-yl]-thiophene-2-carboxylic acid] | ≥ 7.00 | 8.70 | 
